We go through two molecules from ChEMBL document CHEMBL1151325, “New xenia diterpenes isolated from the soft coral, xenia florida” (J Nat Prod, 1998).

Activity calls are given as the source filed them. The rule behind the calls is not given here.

The test system of one assay is Aeromonas salmonicida. In words: Antibacterial activity against Aeromonas salmonicida at 100 ug/disk by paper disk method. Format: functional, organism-based.
A further assay concerns Staphylococcus aureus. In words: Antibacterial activity against Staphylococcus aureus at 100 ug/disk by paper disk method. In kind it is functional, organism-based.

As for `CC(C)/C=C/C=C1/COC(=O)[C@@H]2[C@@H]1CC[C@@]1(C)C[C@]2(O)CC[C@@H]1O`, the result in the assay with Aeromonas salmonicida and with Staphylococcus aureus was Active.

Take `C=C1CC[C@@H]2O[C@@]2(C)CC[C@@H]2/C(=C\C=C\C(C)C)COC(=O)[C@@H]12`: the result with Aeromonas salmonicida and with Staphylococcus aureus was Active.
